Structures can show the parent of a compound that is named as a salt.
Tests used:
Type in all cases: in vivo, C57BL/6J mice
[1] = Body weight of mice with testicular dysfunction caused by obese type 2 diabetes mellitus; set-up: AUC of weight before treatment: unit not given beside the values
Protocol: With six mice in each group, the mice are randomly assigned after one week of adaptive rearing to a control group (Con), a model group (Model), a high-dose compound group (YPBS-H), a low-dose compound group (YPBS-L) and a metformin group (Metformin, Met). The six mice in the control group are given regular feed, the remaining mice are fed with 60% high-fat feed, the weight of each of mice is recorded every 7 days during the feeding.
The mice in each group have been successfully established after feeding for 16 weeks in step 2.1, and the mice in each group are given medicine treatment as follows.
The high-dose compound group (YPBS-H): the traditional Chinese medicine compound obtained in the embodiment 1 is given at a dose of 4 grams per kilogram per day (g/kg/d) per animal.
The low-dose compound group (YPBS-L): the traditional Chinese medicine compound obtained in the embodiment 1 is given at a dose of 2 g/kg/d per animal.
The metformin group (Met): the metformin is given at a dose of 200 mg/kg/d per animal.
During the administration, the mice are fed with the normal feed and drink water normally, and the weight changes of mice are observed. Data is analyzed using GraphPad Prism 8.4 statistical software. Counting data of experimental results is expressed as rate/percentage (%), and measurement data is expressed as x (i.e., mean)±s. The one-way analysis of variance (ANOVA) is used to compare the groups, and the difference is statistically significant with P<0.05.

[2] = tested on: mice with testicular dysfunction caused by obese type 2 diabetes mellitus; assay: Oral glucose tolerance test (OGTT); settings: metformin 200 mg/kg/d, after 30 days; blood glucose 0-120 min after gavage
Protocol: (§1) 2.3 After 30 days of administration of each group in step 2.2, the following tests are performed in each group.
(§2) OGTT test: the mice are weighed after 15 h fast, fasting blood glucose (FPG) of the mice is measured separately, and the amount of glucose is determined based on the mice's weight. Blood glucose fluctuations are then monitored at 15 min, 30 min, 60 min and 120 min after gavage. Data is analyzed using GraphPad Prism 8.4 statistical software. Counting data of experimental results is expressed as rate/percentage (%), and measurement data is expressed as x±s. The one-way ANOVA is used to compare the groups, and the difference is statistically significant with P<0.05.

[3] = tested on: mice with testicular dysfunction caused by obese type 2 diabetes mellitus; assay: Insulin tolerance test (ITT); settings: metformin 200 mg/kg/d, after 30 days; blood glucose 0-120 min after insulin
Protocol: as §1
(§3) ITT test: the mice are weighed after 5 h fast, the insulin dosage is calculated, and FPG of the mice is measured. Blood glucose fluctuations are then monitored at 15 min, 30 min, 60 min and 120 min after insulin is given. Data is analyzed using GraphPad Prism 8.4 statistical software. Counting data of experimental results is expressed as rate/percentage (%), and measurement data is expressed as x±s. The one-way ANOVA is used to compare the groups, and the difference is statistically significant with P<0.05.

[4] = tested on: mice with testicular dysfunction caused by obese type 2 diabetes mellitus; assay: Fasting blood glucose (FPG); settings: metformin 200 mg/kg/d, day 30
Protocol: as §2, §3

[5] = tested on: mouse testis tissue; assay: HE staining of testis tissue (testicular morphology); settings: HE staining 200x; metformin 200 mg/kg/d, after 30 days
[6] = tested on: sperm of obese type 2 diabetic mice; assay: Analysis of semen parameters; settings: metformin 200 mg/kg/d, after 30 days
Protocol: One side of epididymis in each group is put into a 12-well plate, diluted with 500 μL of normal saline, fully cut into pieces by a tissue scissor, incubated in a 37° C. incubator, and filtered by a 200-mesh sieve, and 20 μL of filtrate is collected on a cell counting plate, observed under a microscope, and the number of sperm is counted. Sperm viability, sperm motility and malformation rate are counted respectively by Yin Hong aniline black and Diff-Quick staining. Data is analyzed using GraphPad Prism 8.4 statistical software. Counting data of experimental results is expressed as rate/percentage (%), and measurement data is expressed as x±s. The one-way ANOVA is used to compare the groups, and the difference is statistically significant with P<0.05.

[7] = tested on: obese type 2 diabetic mice; assay: Testis, epididymis and seminal vesicle gland coefficients; settings: metformin 200 mg/kg/d, after 30 days
[8] = tested on: T-SOD; assay: Serum T-SOD by colorimetry; settings: metformin 200 mg/kg/d, after 30 days
Protocol: (§4) The levels of T-SOD, MDA and GSH-px in serum are measured by colorimetry, and the level of testosterone (T) in serum is measured by enzyme linked immunosorbent assay (ELISA), all according to the manufacturer's instructions. Data is analyzed using GraphPad Prism 8.4 statistical software. Counting data of experimental results is expressed as rate/percentage (%), and measurement data is expressed as x±s. The one-way ANOVA is used to compare the groups, and the difference is statistically significant with P<0.05.

[9] = tested on: MDA; assay: Serum MDA by colorimetry; settings: metformin 200 mg/kg/d, after 30 days
Protocol: as §4

[10] = tested on: GSH-px; assay: Serum GSH-Px by colorimetry; settings: metformin 200 mg/kg/d, after 30 days
Protocol: as §4

[11] = tested on: testosterone (T); assay: Serum testosterone by ELISA; settings: metformin 200 mg/kg/d, after 30 days
Protocol: as §4

[12] = tested on: PI3K; assay: Western blot of PI3K expression in testis; settings: Western blot gray values, metformin 200 mg/kg/d, after 30 days
Protocol: (§5) Protein samples are taken and added into concentrated gel of an electrophoresis tank for running the gel, transferring the protein from the gel to the membrane, bovine albumin (BSA) blocking and membrane washing, then primary antibodies (including PI3K (rabbit antibody), AKT (rabbit antibody), p-AKT (rabbit antibody), β-actin (rabbit antibody), Bcl-2 (rabbit antibody) and β-actin (mouse antibody) diluted at the concentration 1:1000) are added for incubation and stay overnight in the refrigerator at 4° C.; the next day, the membrane is washed, after the secondary antibodies (including: a mouse secondary antibody (1:5000) and a rabbit secondary antibody (1:2000)) are added for incubation and blocked, the membrane is washed, followed by development, and then gray values are analyzed. Data is analyzed using GraphPad Prism 8.4 statistical software. Counting data of experimental results is expressed as rate/percentage (%), and measurement data is expressed as x±s. The one-way ANOVA is used to compare the groups, and the difference is statistically significant with P<0.05.

[13] = tested on: p-AKT; assay: Western blot of p-AKT expression in testis; settings: Western blot gray values, metformin 200 mg/kg/d, after 30 days
Protocol: as §5

[14] = tested on: Bcl-2; assay: Western blot of Bcl-2 expression in testis; settings: Western blot gray values, metformin 200 mg/kg/d, after 30 days
Protocol: as §5

[15] = tested on: obese type 2 diabetic mice; assay: Cage experiment (fertility)
Protocol: Female mice of childbearing age are caged with male mice of each group in the ratio of 2:1 for one week, and their fertility is tested by the birth situation.

[16] = tested on: sperm and egg cells; assay: In vitro fertilization with sperm of the treated mice
Source text: The sperm of the mice in each group is taken for fertilization in vitro.

[17] = after treatment, dose group not stated
[18] = females caged with males 2:1 for one week, males given metformin 200 mg/kg/d
[19] = of 10 egg cells, sperm of mice given metformin 200 mg/kg/d

SMILES: CN(C)C(=N)N=C(N)N [Met, metformin hydrochloride]
- AUC of weight before treatment ([1]; before treatment (16 weeks high-fat feed), metformin group): 613.8 ± 5.3^Δ
- AUC of weight after treatment ([1]; metformin 200 mg/kg/d, 30 days): 1243.0 ± 12.0^Δ
- Weight on the 30th day after treatment ([1]; metformin 200 mg/kg/d, day 30): 37.9 ± 2.2^Δ g
- OGTT-AUC [2]: 1660 ± 70.3^Δ
- ITT-AUC [3]: 760.7 ± 49.5^Δ
- FPG on the 30th day after treatment [4]: 5.5 ± 0.9^Δ
- testicular morphology compared to the model group [5]: considerably improved
- Sperm count [6]: 85.02 ± 10.55^Δ 10^6/L
- Sperm malformation rate [6]: 68.18 ± 4.12^Δ %
- Sperm motility [6]: 34.55 ± 0.37^Δ %
- Sperm viability [6]: 43.84 ± 3.59^Δ %
- Epididymis coefficient [7]: 0.33 ± 0.03^Δ %
- Seminal vesicle gland coefficient [7]: 1.21 ± 0.06^Δ %
- Testis coefficient [7]: 0.65 ± 0.04^Δ %
- T-SOD [8]: 168.4 ± 34.7^Δ U/mgprot
- MDA [9]: 5.6 ± 1.5^Δ umol/L
- GSH-Px [10]: 2206.0 ± 535.6^Δ umol/L
- Testosterone T [11]: 5.06 ± 1.42 ng/mL
- PI3K/β-actin [12]: 0.945 ± 0.056^Δ
- p-AKT/AKT [13]: 0.635 ± 0.141
- Bcl-2/β-actin [14]: 1.020 ± 0.076^Δ
- fertility of the mice [15, 17]: improved, reaching the normal fertility level
- Average number of offspring [15, 18]: 5.3
- Pregnancy rate [15, 18]: 50%
- Vaginal suppository [15, 18]: 50%
- binding rate of sperm and egg cells [16, 17]: increases
- division of fertilized egg cells [16, 17]: divide normally
- Number of division of fertilized eggs within 24 hours [16, 19]: 7
- Sperm and egg binding number [16, 19]: 7
